Results published in patent US20090312380A1, “NOVEL COMPOSITIONS AND METHODS” (priority 2006, published 2009).

How the values were obtained:
Assay type in all cases: physicochemical
[1] = Particle size profile of irbesartan samples; details: for D (v, 0.1) particle size: 10 % of particles smaller; for D (v, 0.5) particle size: 50 % of particles smaller; for D (v, 0.9) particle size: 90 % of particles smaller
Description: The particle size profile of samples A-D of irbesartan were tested (see Table 1). It can be seen that across the range the particle sizes were very similar. Thus any difference in dissolution kinetics of samples from the relevant batch cannot be attributed to particle size. The D values represent particle size medians from the detected particle size distribution curves. D(v, x) means that 100x % of particles are smaller than the corresponding D value, and 100-100x % of particles are larger. The samples were also subjected to the Brunauer-Emmett-Teller (BET)-nitrogen adsorption analysis to determine the total surface area of the samples as follows: […]

[2] = Gravimetric vapour sorption (GVS), water vapour adsorption; details: for water vapour adsorption (comparison): GVS, compared with samples B or C
Description: GVS is a method traditionally used to detect quantitative weight changes of samples as a function of the relative humidity (RH). Samples, which can comprise solid-state samples such as powders and tablets, but also liquids, are exposed to a defined humidity profile. The corresponding weight change is continuously recorded via an ultra-microbalance. Defined humidity levels are established by mixing defined ratios of a dry carrier gas, usually nitrogen, and a wet stream, typically a water vapour saturated carrier gas such as nitrogen. The RH level is then controlled by the ratio of the dry:wet stream. To maintain isothermal conditions, the GVS apparatus which comprises a microbalance and humidification unit is set up in an incubator system held at a defined temperature. The primary information obtained by a typical commercial GVS system is: • Kinetics of water uptake: • The kinetic of the water uptake is a mass vs. time plot at constant RH level. The equilibrium between sample and humidity can be determined from this information. • Sorption isotherms: • The equilibrium weight changes at each humidity are related to the dry mass of the sample (i.e. the equilibrium mass at 0% RH). The equilibrium weight changes as a function of the RH level are the corresponding sorption isotherms of the sample. Typical sorption isotherms comprise adsorption, i.e. increasing RH levels, and desorption, i.e. decreasing RH levels, cycles. Typically, RH ranges from 0-95% RH are covered. For this purpose, water vapour sorption experiments can be carried out as follows: • Adsorption segment range 0-98% RH, preferably 0-50% RH. • Adsorption segment RH-step size of 10% RH or smaller, preferably 5% RH or 2.5% RH. • Desorption segment range 98-0% RH, preferably 50-0% RH. • Desorption segment RH-step size of 10% RH or smaller, preferably 5% RH or 2.5% RH. • Equilibration times at each humidity of 15 minutes and longer, preferably 30 minutes and longer, most preferably 60 minutes and longer. The important factor here is that all water vapour sorption uptakes used for further evaluation do reach equilibrium, i.e. that the weight change over time within each RH-step kinetic should be very small at the end of each RH segment. For these purposes, typical equilibration times are given. • Isothermal temperature in the range 5-50° C., preferably 25-37° C., most preferably about 25° C. • Sample masses of 10-50 mg, preferably 15-50 mg. […] Compression/compaction of the sample should be avoided in order to ensure that there are enough voids in any powder sample to allow the water vapour to penetrate. From these experiments, the primary information obtained is the sorption kinetic (mass vs. time at constant humidity) as well as the conventional sorption isotherm (weight change related to dry value vs. RH level), as previously described. The four samples A-D of irbesartan were also subjected to GVS to assess the extent of any water adsorption. […] The water adsorption results obtained from the GVS analysis are illustrated in Table 3.

[3] = BET nitrogen adsorption analysis, total specific surface area; details: for Specific Surface Area (nitrogen): BET nitrogen adsorption model, 77.3K
Description: The D values represent particle size medians from the detected particle size distribution curves. D(v, x) means that 100x % of particles are smaller than the corresponding D value, and 100-100x % of particles are larger. The samples were also subjected to the Brunauer-Emmett-Teller (BET)-nitrogen adsorption analysis to determine the total surface area of the samples as follows:
Approximately 0.2-0.5 g of material (accurately weighed) was loaded into a surface area analyser glass tube fitted with a glass rod in order to minimise the overall free space. The sample was then outgased under vacuum at 30° C. for several hours. Upon completion of the outgas step, the sample tube was removed from the analyser and backfilled with helium to avoid refilling with air from the surrounding environment. The sample tube was reweighed in order to calculate the amount of dry sample used during the analysis step. The analyser tube was then loaded into the surface area analyser, and free space analysis was then conducted in order to account for the free volume in the tube and thus accurately measure the quantity of gas adsorbed directly on the powder surface. Nitrogen gas adsorption measurement was executed in a liquid nitrogen filled dewar at 77.3K. BET multipoint surface area determination was performed in the partial pressure range p/po=0.1-0.3 with 5 data points. Specific surface area calculation was performed by linear regression analysis of data according to the BET equation.

SMILES: CCCCC1=NC2(CCCC2)C(=O)N1Cc1ccc(-c2ccccc2-c2nnn[nH]2)cc1 [Sample A, irbesartan]
- D (v, 0.1) particle size [1]: 1 μm
- D (v, 0.5) particle size [1]: 3 μm
- D (v, 0.9) particle size [1]: 12 μm
- Water Adsorption ([2]; 5 % RH): 0.06 wt %
- Water Adsorption ([2]; 10 % RH): 0.09 wt %
- Water Adsorption ([2]; 15 % RH): 0.12 wt %
- Water Adsorption ([2]; 20 % RH): 0.14 wt %
- Water Adsorption ([2]; 25 % RH): 0.17 wt %
- Water Adsorption ([2]; 30 % RH): 0.20 wt %
- Water Adsorption ([2]; 35 % RH): 0.22 wt %
- Water Adsorption ([2]; 40 % RH): 0.24 wt %
- Water Adsorption ([2]; 50 % RH): 0.29 wt %
- Water Adsorption ([2]; 60 % RH): 0.34 wt %
- Water Adsorption ([2]; 70 % RH): 0.39 wt %
- Water Adsorption ([2]; 80 % RH): 0.44 wt %
- Water Adsorption ([2]; 90 % RH): 0.52 wt %
- water vapour adsorption (comparison) [2]: greater water vapour adsorption
- Rel. adsorbed amount n ([2]; RH 0.33 %): 0.0258 wt %
- Abs. adsorbed amount n ([2]; RH 4.98 %): 0.0110 mg
- Rel. adsorbed amount n ([2]; RH 4.98 %): 0.0592 wt %
- Abs. adsorbed amount n ([2]; RH 10.01 %): 0.0166 mg
- Rel. adsorbed amount n ([2]; RH 10.01 %): 0.0894 wt %
- Abs. adsorbed amount n ([2]; RH 15.00 %): 0.0219 mg
- Rel. adsorbed amount n ([2]; RH 15.00 %): 0.1179 wt %
- Abs. adsorbed amount n ([2]; RH 19.99 %): 0.0265 mg
- Rel. adsorbed amount n ([2]; RH 19.99 %): 0.1427 wt %
- Abs. adsorbed amount n ([2]; RH 25.02 %): 0.0320 mg
- Rel. adsorbed amount n ([2]; RH 25.02 %): 0.1723 wt %
- Abs. adsorbed amount n ([2]; RH 30.00 %): 0.0369 mg
- Rel. adsorbed amount n ([2]; RH 30.00 %): 0.1987 wt %
- Rel. adsorbed amount n ([2]; RH 34.98 %): 0.2207 wt %
- Rel. adsorbed amount n ([2]; RH 40.02 %): 0.2439 wt %
- Rel. adsorbed amount n ([2]; RH 49.98 %): 0.2902 wt %
- Rel. adsorbed amount n ([2]; RH 60.00 %): 0.3392 wt %
- Rel. adsorbed amount n ([2]; RH 70.02 %): 0.3855 wt %
- Rel. adsorbed amount n ([2]; RH 79.99 %): 0.4372 wt %
- Rel. adsorbed amount n ([2]; RH 90.01 %): 0.5152 wt %
- Rel. adsorbed amount n ([2]; RH 93.03 %): 0.5233 wt %
- Specific Surface Area (nitrogen) [3]: 5.17 m^2/g

SMILES: CCCCC1=NC2(CCCC2)C(=O)N1Cc1ccc(-c2ccccc2-c2nnn[nH]2)cc1 [Sample B, irbesartan]
- D (v, 0.1) particle size [1]: 1 μm
- D (v, 0.5) particle size [1]: 3 μm
- D (v, 0.9) particle size [1]: 17 μm
- Water Adsorption ([2]; 5 % RH): 0.03 wt %
- Water Adsorption ([2]; 10 % RH): 0.04 wt %
- Water Adsorption ([2]; 15 % RH): 0.06 wt %
- Water Adsorption ([2]; 20 % RH): 0.07 wt %
- Water Adsorption ([2]; 25 % RH): 0.09 wt %
- Water Adsorption ([2]; 30 % RH): 0.10 wt %
- Water Adsorption ([2]; 35 % RH): 0.11 wt %
- Water Adsorption ([2]; 40 % RH): 0.13 wt %
- Water Adsorption ([2]; 50 % RH): 0.15 wt %
- Water Adsorption ([2]; 60 % RH): 0.18 wt %
- Water Adsorption ([2]; 70 % RH): 0.20 wt %
- Water Adsorption ([2]; 80 % RH): 0.23 wt %
- Water Adsorption ([2]; 90 % RH): 0.28 wt %
- specific surface area (ranking among samples A-D) ([3]; BET nitrogen adsorption): greatest specific surface area
- Specific Surface Area (nitrogen) [3]: 6.16 m^2/g

SMILES: CCCCC1=NC2(CCCC2)C(=O)N1Cc1ccc(-c2ccccc2-c2nnn[nH]2)cc1 [Sample C, irbesartan]
- D (v, 0.1) particle size [1]: 1 μm
- D (v, 0.5) particle size [1]: 5 μm
- D (v, 0.9) particle size [1]: 13 μm
- Water Adsorption ([2]; 5 % RH): 0.04 wt %
- Water Adsorption ([2]; 10 % RH): 0.07 wt %
- Water Adsorption ([2]; 15 % RH): 0.08 wt %
- Water Adsorption ([2]; 20 % RH): 0.09 wt %
- Water Adsorption ([2]; 25 % RH): 0.11 wt %
- Water Adsorption ([2]; 30 % RH): 0.13 wt %
- Water Adsorption ([2]; 35 % RH): 0.14 wt %
- Water Adsorption ([2]; 40 % RH): 0.15 wt %
- Water Adsorption ([2]; 50 % RH): 0.18 wt %
- Water Adsorption ([2]; 60 % RH): 0.21 wt %
- Water Adsorption ([2]; 70 % RH): 0.23 wt %
- Water Adsorption ([2]; 80 % RH): 0.27 wt %
- Water Adsorption ([2]; 90 % RH): 0.31 wt %
- Specific Surface Area (nitrogen) [3]: 3.16 m^2/g

SMILES: CCCCC1=NC2(CCCC2)C(=O)N1Cc1ccc(-c2ccccc2-c2nnn[nH]2)cc1 [Sample D, irbesartan]
- D (v, 0.1) particle size [1]: 1 μm
- D (v, 0.5) particle size [1]: 3 μm
- D (v, 0.9) particle size [1]: 7 μm
- Water Adsorption ([2]; 5 % RH): 0.07 wt %
- Water Adsorption ([2]; 10 % RH): 0.10 wt %
- Water Adsorption ([2]; 15 % RH): 0.13 wt %
- Water Adsorption ([2]; 20 % RH): 0.16 wt %
- Water Adsorption ([2]; 25 % RH): 0.19 wt %
- Water Adsorption ([2]; 35 % RH): 0.23 wt %
- Water Adsorption ([2]; 40 % RH): 0.26 wt %
- Water Adsorption ([2]; 50 % RH): 0.33 wt %
- Water Adsorption ([2]; 60 % RH): 0.39 wt %
- Water Adsorption ([2]; 70 % RH): 0.46 wt %
- Water Adsorption ([2]; 80 % RH): 0.52 wt %
- Water Adsorption ([2]; 90 % RH): 0.63 wt %
- water vapour adsorption (comparison) [2]: greater water vapour adsorption
- Specific Surface Area (nitrogen) [3]: 4.29 m^2/g
